Data reported in US12577248B2, “Substituted [1,2,4]triazolo[1,5-a]pyrazines as spleen tyrosine kinase inhibitors” (NANJING RUIJIE PHARMA CO., LTD., priority 2020, dated 2026).

How the values were obtained:
SYK kinase = SYK kinase (Homo sapiens, UniProt P43405); assay: SYK kinase assay (HTRF KinEASE-TK); format: biochemical; settings: class symbols, read-out: Syk inhibition IC50
How it was run: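 SYK pre-incubated with compound for 10 min at room temperature, then reacted with biotinylated TK substrate and ATP for 30 min in buffer with 5 mM MgCl2, 1 mM MnCl2 and 1 mM DTT. HTRF 665/615 ratio read after 1 h detection. IC50 from variable-slope fit.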

Ba/F3-TEL-SYK cells = biological target: T1, Ba/F3-TEL-SYK cells (Homo sapiens, UniProt P43405); assay: Ba/F3-TEL-SYK cell-based assay (CellTiter-Glo proliferation); settings: 72 hr, read-out: BaF3 Cell assay IC50
T1 construct: fused on or other part: N-terminal part of TEL (ETV6) with its oligomerising PNT/SAM domain, fused before the SYK part that carries the kinase domain; P41212 (Transcription factor ETV6)
Experimental: CellTiter-Glo® Luminescent Cell Viability Assay was used to determine the number of viable cells in culture based on quantitation of the ATP present, as an indicator of metabolically active cells. The assay was performed in the following steps: First, the testing compounds were dissolved in DMSO to make a stock solution. The stocks (10 mM) were then diluted to varying concentrations: […], 0.305 and 0.102 μM. An aliquot of 0.2 μl of diluted compounds were added to the 384 well assay plate. Second, added 40 μl of cell suspension with 800 Ba/F3-TEL-SYK cells into each well and incubated the plate at 37° C., 5% CO2 for 72 hr. Then, added 20 μl Cell Titer-Glo Reagent into each well of the cell culture plate. Mixed the contents for 2 min on an orbital shaker to lyse cells, and rest the plate at room temperature for 30 min. Finally, luminescence values were obtained using an Envision 2104 plate reader (PerkinElmer) and calculated the average data and Standard Deviation (SD) of DMSO and Reference (GS-9973, 1 μM) as high control and low control. To determine the IC50 value, fit the data using non-linear regression equation.

[1] = In vivo pharmacokinetic analysis, single dose, ICR mice; settings: mouse, male, plasma; for AUC(0-inf) / AUC(0-t) / Cmax / Tmax / half-life: single dose; for bioavailability: PO 10 mg/kg vs IV 2 mg/kg, read-out: F % (bioavailability)
Experimental: This is a single-dose study in ICR mice (male, n=9/administration) with intravenous and oral administration. Compound concentrations in plasma were measured and calculated for pharmacokinetic (PK) analysis via WinNonLin 6.4.

IC50 (SYK kinase)	GI50 (Ba/F3-TEL-SYK cells)	AUC(0-inf) ([1]; IV Administration (2 mg/kg))	AUC(0-t) ([1]; IV Administration (2 mg/kg))	Cmax ([1]; IV Administration (2 mg/kg))	Tmax ([1]; IV Administration (2 mg/kg))	half-life ([1]; IV Administration (2 mg/kg))	AUC(0-inf) ([1]; PO Administration (10 mg/kg))	AUC(0-t) ([1]; PO Administration (10 mg/kg))	Cmax ([1]; PO Administration (10 mg/kg))	Tmax ([1]; PO Administration (10 mg/kg))	half-life ([1]; PO Administration (10 mg/kg))	bioavailability [1]	Structure (SMILES)
≤ 50 nM	≤ 50 nM	2300 ng·h/mL	2290 ng·h/mL	3960 ng/mL	4.8 min	590 min	7370 ng·h/mL	7330 ng·h/mL	7520 ng/mL	15 min	265 min	64.2%	c1nc2c(Nc3ccc(N4CCN(C5COC5)CC4)cc3)nc(-c3ccc4cn[nH]c4c3)cn2n1 [I53, 6-(1H-indazol-6-yl)-N-(4-(4-(oxetan-3-yl)piperazin-1-yl)phenyl)-[1,2,4]triazolo[1,5-a]pyrazin-8-amine]
≤ 50 nM	≤ 50 nM	500 ng·h/mL	499 ng·h/mL	1640 ng/mL	4.8 min	39 min	151 ng·h/mL	145 ng·h/mL	268 ng/mL	15 min	46.8 min	5.81%	COc1cc(Nc2nc(-c3ccc4cn[nH]c4c3)cn3ncnc23)ccc1N1CCN(C2COC2)CC1 [I54, 6-(1H-indazol-6-yl)-N-(3-methoxy-4-(4-(oxetan-3-yl)piperazin-1-yl)phenyl)-[1,2,4]triazolo[1,5-a]pyrazin-8-amine]
≤ 50 nM	≤ 50 nM	4670 ng·h/mL	4670 ng·h/mL	7360 ng/mL	4.8 min	43.2 min	14500 ng·h/mL	14500 ng·h/mL	14400 ng/mL	15 min	196 min	62%	c1nc2c(Nc3ccc(N4CCN(C5COC5)CC4)cc3)nc(-c3ccc4cc[nH]c4c3)cn2n1 [I57, 6-(1H-indol-6-yl)-N-(4-(4-(oxetan-3-yl)piperazin-1-yl)phenyl)-[1,2,4]triazolo[1,5-a]pyrazin-8-amine]
≤ 50 nM	≤ 50 nM	1680 ng·h/mL	1680 ng·h/mL	5110 ng/mL	4.8 min	42.6 min	902 ng·h/mL	895 ng·h/mL	2570 ng/mL	15 min	89.4 min	10.7%	COc1cc(Nc2nc(-c3ccc4cc[nH]c4c3)cn3ncnc23)ccc1N1CCN(C2COC2)CC1 [I58, 6-(1H-indol-6-yl)-N-(3-methoxy-4-(4-(oxetan-3-yl)piperazin-1-yl)phenyl)-[1,2,4]triazolo[1,5-a]pyrazin-8-amine]
